Results reported in PubChem BioAssay AID248 (DTP/NCI, 2004).
Several values for one entry are separate records, joined by “and”; a condition that tells them apart may be missing. Identical values can stand only once. Toxic doses and inconclusive results are not listed. Rule as the data show it: active = T/C of 150% or more; inactive = T/C below 125%.

Test system: L1210 leukemia ip in BDF1 mice, survival T/C
Assay: NCI In Vivo Anticancer Drug Screen. Data for tumor model L1210 Leukemia (intraperitoneal) in B6D2F1 (BDF1) mice
Conditions: endpoint: mean survival time, higher = longer survival
How it was run: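 Ratio derived from survival: compound-dosed mice over vehicle-dosed mice, all bearing a transplantable tumor.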

[1] = dose: 100.0 mg/kg/injection, schedule: Q04DX002 (ip), vehicle: Klucel (hydroxypropylcellulose) (HPC)
[2] = dose: 200.0 mg/kg/injection, schedule: Q04DX002 (ip), vehicle: Klucel (hydroxypropylcellulose) (HPC)
[3] = dose: 400.0 mg/kg/injection, schedule: Q04DX002 (ip), vehicle: Klucel (hydroxypropylcellulose) (HPC)
[4] = dose: 100.0 mg/kg/injection, schedule: Q01DX009 (ip), vehicle: Klucel (hydroxypropylcellulose) (HPC)
[5] = dose: 100.0 mg/kg/injection, schedule: Q04DX003 (ip), vehicle: Klucel (hydroxypropylcellulose) (HPC)
[6] = dose: 200.0 mg/kg/injection, schedule: Q01DX009 (ip), vehicle: Klucel (hydroxypropylcellulose) (HPC)
[7] = dose: 200.0 mg/kg/injection, schedule: Q04DX003 (ip), vehicle: Klucel (hydroxypropylcellulose) (HPC)
[8] = dose: 400.0 mg/kg/injection, schedule: Q01DX009 (ip), vehicle: Klucel (hydroxypropylcellulose) (HPC)
[9] = dose: 400.0 mg/kg/injection, schedule: Q04DX003 (ip), vehicle: Klucel (hydroxypropylcellulose) (HPC)
[10] = dose: 100.0 mg/kg/injection, schedule: Q01DX009 (ip), vehicle: saline with Tween-80
[11] = dose: 100.0 mg/kg/injection, schedule: Q04DX002 (ip), vehicle: saline with Tween-80
[12] = dose: 200.0 mg/kg/injection, schedule: Q01DX009 (ip), vehicle: saline with Tween-80
[13] = dose: 200.0 mg/kg/injection, schedule: Q04DX002 (ip), vehicle: saline with Tween-80
[14] = dose: 400.0 mg/kg/injection, schedule: Q04DX002 (ip), vehicle: saline with Tween-80
[15] = dose: 100.0 mg/kg/injection, schedule: Q01DX001 (ip), vehicle: saline
[16] = dose: 200.0 mg/kg/injection, schedule: Q01DX001 (ip), vehicle: saline
[17] = dose: 400.0 mg/kg/injection, schedule: Q01DX001 (ip), vehicle: saline
[18] = dose: 100.0 mg/kg/injection, schedule: Q04DX003 (ip), vehicle: saline with Tween-80
[19] = dose: 200.0 mg/kg/injection, schedule: Q04DX003 (ip), vehicle: saline with Tween-80
[20] = dose: 400.0 mg/kg/injection, schedule: Q04DX003 (ip), vehicle: saline with Tween-80
[21] = dose: 100.0 mg/kg/injection, schedule: Q04DX002 (ip), vehicle: saline

Measured: T/C

C[n+]1ccc(Nc2ccc(NC(=O)c3ccc(N)cc3)cc2)cc1
inactive: dose: 12.5 mg/kg/injection, schedule: Q01DX009 (ip), vehicle: water 117 % of control | dose: 25.0 mg/kg/injection, schedule: Q01DX009 (ip), vehicle: water 107 % of control | dose: 50.0 mg/kg/injection, schedule: Q01DX009 (ip), vehicle: water 112 % of control

O=C(O)c1ccc2c(c1)Cc1ccccc1-2
inactive: dose: 75.0 mg/kg/injection, schedule: Q01DX001 (ip), vehicle: carboxymethylcellulose (CMC) 96 % of control | dose: 150.0 mg/kg/injection, schedule: Q01DX001 (ip), vehicle: carboxymethylcellulose (CMC) 95 % of control | dose: 300.0 mg/kg/injection, schedule: Q01DX001 (ip), vehicle: carboxymethylcellulose (CMC) 102 % of control

C=C/C=N/Nc1ccc([N+](=O)[O-])cc1
inactive: [1] 98 % of control | [2] 92 % of control | [3] 95 % of control

Cc1ccc2no[n+]([O-])c2c1
inactive: dose: 20.0 mg/kg/injection, schedule: Q01DX009 (ip), vehicle: Klucel (hydroxypropylcellulose) (HPC) 111 % of control | dose: 40.0 mg/kg/injection, schedule: Q01DX009 (ip), vehicle: Klucel (hydroxypropylcellulose) (HPC) 108 % of control

O=C(OC1COC(Br)C(OC(=O)c2ccccc2)C1OC(=O)c1ccccc1)c1ccccc1 (stereo not given)
inactive: dose: 50.0 mg/kg/injection, schedule: Q01DX001 (ip), vehicle: carboxymethylcellulose (CMC) 90 % of control | dose: 100.0 mg/kg/injection, schedule: Q01DX001 (ip), vehicle: carboxymethylcellulose (CMC) 95 % of control and 97 % of control | [4] 97 % of control | [5] 106 % of control | dose: 200.0 mg/kg/injection, schedule: Q01DX001 (ip), vehicle: carboxymethylcellulose (CMC) 93 % of control and 94 % of control | [6] 103 % of control | [7] 104 % of control | dose: 400.0 mg/kg/injection, schedule: Q01DX001 (ip), vehicle: carboxymethylcellulose (CMC) 98 % of control and 94 % of control | [8] 98 % of control | [9] 98 % of control

COC(=O)CCNCc1ccccc1
inactive: [4] 103 % of control | [5] 106 % of control | [6] 99 % of control | [7] 98 % of control | [8] 99 % of control | [9] 103 % of control

c1ccc([Si](c2ccccc2)(c2ccccc2)[Si](c2ccccc2)(c2ccccc2)c2ccccc2)cc1
inactive: dose: 12.5 mg/kg/injection, schedule: Q01DX009 (ip), vehicle: saline 100 % of control | dose: 25.0 mg/kg/injection, schedule: Q01DX009 (ip), vehicle: saline 93 % of control | dose: 50.0 mg/kg/injection, schedule: Q01DX009 (ip), vehicle: saline 93 % of control | [1] 98 % of control | [2] 98 % of control | [3] 87 % of control

O=C1c2ccccc2C(=O)N1CNc1cccc(Cl)c1
inactive: [10] 88 % of control | [11] 102 % of control | [12] 91 % of control | [13] 105 % of control | [14] 97 % of control

CCCCNc1nnc(N)s1
inactive: [11] 98 % of control | [13] 98 % of control

Cc1ccc(-c2nc(C#N)c(C#N)nc2-c2ccc(C)cc2)cc1
inactive: [15] 98 % of control | [16] 101 % of control | [17] 101 % of control

Cc1ccc2c(c1)C(c1ccccc1)(c1ccccc1)OC2=O
inactive: [10] 98 % of control | [12] 98 % of control | dose: 400.0 mg/kg/injection, schedule: Q01DX009 (ip), vehicle: saline with Tween-80 103 % of control

O=C(NOCc1cscn1)Nc1ccccc1
inactive: [15] 101 % of control | [16] 104 % of control | [17] 104 % of control

OC12c3ccccc3C(O)(c3ccccc31)C1c3ccccc3C2c2ccccc21
inactive: dose: 50.0 mg/kg/injection, schedule: Q04DX002 (ip), vehicle: Klucel (hydroxypropylcellulose) (HPC) 101 % of control | [1] 93 % of control

C[N+](C)(C)c1ccc(N=Nc2ccccn2)cc1
inactive: dose: 50.0 mg/kg/injection, schedule: Q01DX001 (ip), vehicle: saline 113 % of control

CCOC(=O)c1ccc2ccccc2[n+]1C
inactive: dose: 75.0 mg/kg/injection, schedule: Q01DX001 (ip), vehicle: saline 89 % of control | dose: 150.0 mg/kg/injection, schedule: Q01DX001 (ip), vehicle: saline 94 % of control | dose: 300.0 mg/kg/injection, schedule: Q01DX001 (ip), vehicle: saline 91 % of control

Cc1ccc(S(=O)(=O)SS(=O)(=O)c2ccc(C)cc2)cc1
inactive: [11] 90 % of control | [13] 90 % of control | [14] 90 % of control

O=S(=O)(NO)c1ccc(Cl)cc1
inactive: dose: 50.0 mg/kg/injection, schedule: Q01DX009 (ip), vehicle: saline sonified 98 % of control | dose: 100.0 mg/kg/injection, schedule: Q01DX009 (ip), vehicle: saline sonified 91 % of control | dose: 100.0 mg/kg/injection, schedule: Q04DX003 (ip), vehicle: saline 98 % of control | dose: 200.0 mg/kg/injection, schedule: Q01DX009 (ip), vehicle: saline sonified 95 % of control | dose: 200.0 mg/kg/injection, schedule: Q04DX003 (ip), vehicle: saline 94 % of control

O=C(O)CC(SC(c1ccccc1)(c1ccccc1)c1ccccc1)C(=O)O (stereo not given)
inactive: [4] 93 % of control | [5] 98 % of control | [6] 90 % of control | [7] 102 % of control | [9] 96 % of control

COC(OC)c1nc(SC)[nH]c(=O)c1C[N+](C)(C)C
inactive: [10] 102 % of control | [18] 96 % of control | [12] 92 % of control | [19] 94 % of control | [20] 91 % of control

Nc1cc(=O)[nH]c(C(F)(F)F)n1
inactive: dose: 29.0 mg/kg/injection, schedule: Q01DX Z (ip), vehicle: saline 119 % of control | dose: 45.0 mg/kg/injection, schedule: Q01DX Z (ip), vehicle: saline 98 % of control | dose: 67.0 mg/kg/injection, schedule: Q01DX Z (ip), vehicle: saline 106 % of control | dose: 100.0 mg/kg/injection, schedule: Q01DX Z (ip), vehicle: saline 104 % of control

O=C(O)/C=C/C(=O)Nc1ccc(F)cc1F
inactive: [18] 100 % of control | [19] 100 % of control | [20] 107 % of control

c1ccc(N2CCNCC2)nc1
inactive: dose: 5.0 mg/kg/injection, schedule: Q01DX009 (ip), vehicle: acetone 100 % of control | dose: 10.0 mg/kg/injection, schedule: Q01DX001 (ip), vehicle: acetone 96 % of control | dose: 10.0 mg/kg/injection, schedule: Q01DX009 (ip), vehicle: acetone 97 % of control | dose: 10.0 mg/kg/injection, schedule: Q04DX003 (ip), vehicle: saline 109 % of control | dose: 20.0 mg/kg/injection, schedule: Q01DX001 (ip), vehicle: acetone 95 % of control | dose: 20.0 mg/kg/injection, schedule: Q01DX009 (ip), vehicle: acetone 95 % of control | dose: 20.0 mg/kg/injection, schedule: Q04DX003 (ip), vehicle: saline 98 % of control | dose: 40.0 mg/kg/injection, schedule: Q01DX001 (ip), vehicle: acetone 106 % of control | dose: 40.0 mg/kg/injection, schedule: Q04DX003 (ip), vehicle: saline 101 % of control

NC(CCl)=NC1CN2CCC1CC2 (stereo not given)
inactive: dose: 25.0 mg/kg/injection, schedule: Q04DX002 (ip), vehicle: saline 101 % of control | dose: 50.0 mg/kg/injection, schedule: Q04DX002 (ip), vehicle: saline 90 % of control | [21] 102 % of control

CCCC(OP(=S)(OCC(Cl)CC)OCC(Cl)CC)P(=O)(OCC(Cl)CC)OCC(Cl)CC (stereo not given)
inactive: [21] 106 % of control | dose: 200.0 mg/kg/injection, schedule: Q04DX002 (ip), vehicle: saline 106 % of control | dose: 400.0 mg/kg/injection, schedule: Q04DX002 (ip), vehicle: saline 106 % of control
